Experimental findings from patent US9611222B2, “Pyridine compounds and the uses thereof” (Purdue Pharma L.P., priority 2010, dated 2017) are described below.

SMILES strings stand for the structures.

The experiment addresses human Nav1.7 (Homo sapiens (Human), UniProt Q15858). Put plainly: FLIPR or FLIPR TETRA sodium dye assay with KCl and test article pre-incubation. The class given is cell-based. Particulars: sodium channel blocking activity, recombinant HEK293 cells, CoroNa Green dye, veratridine + scorpion venom; read-out: Nav1.7 IC50 (μM) ± SEM.

Chain of human Nav1.7 (Q15858 with tags, fused parts or gaps limits assumed): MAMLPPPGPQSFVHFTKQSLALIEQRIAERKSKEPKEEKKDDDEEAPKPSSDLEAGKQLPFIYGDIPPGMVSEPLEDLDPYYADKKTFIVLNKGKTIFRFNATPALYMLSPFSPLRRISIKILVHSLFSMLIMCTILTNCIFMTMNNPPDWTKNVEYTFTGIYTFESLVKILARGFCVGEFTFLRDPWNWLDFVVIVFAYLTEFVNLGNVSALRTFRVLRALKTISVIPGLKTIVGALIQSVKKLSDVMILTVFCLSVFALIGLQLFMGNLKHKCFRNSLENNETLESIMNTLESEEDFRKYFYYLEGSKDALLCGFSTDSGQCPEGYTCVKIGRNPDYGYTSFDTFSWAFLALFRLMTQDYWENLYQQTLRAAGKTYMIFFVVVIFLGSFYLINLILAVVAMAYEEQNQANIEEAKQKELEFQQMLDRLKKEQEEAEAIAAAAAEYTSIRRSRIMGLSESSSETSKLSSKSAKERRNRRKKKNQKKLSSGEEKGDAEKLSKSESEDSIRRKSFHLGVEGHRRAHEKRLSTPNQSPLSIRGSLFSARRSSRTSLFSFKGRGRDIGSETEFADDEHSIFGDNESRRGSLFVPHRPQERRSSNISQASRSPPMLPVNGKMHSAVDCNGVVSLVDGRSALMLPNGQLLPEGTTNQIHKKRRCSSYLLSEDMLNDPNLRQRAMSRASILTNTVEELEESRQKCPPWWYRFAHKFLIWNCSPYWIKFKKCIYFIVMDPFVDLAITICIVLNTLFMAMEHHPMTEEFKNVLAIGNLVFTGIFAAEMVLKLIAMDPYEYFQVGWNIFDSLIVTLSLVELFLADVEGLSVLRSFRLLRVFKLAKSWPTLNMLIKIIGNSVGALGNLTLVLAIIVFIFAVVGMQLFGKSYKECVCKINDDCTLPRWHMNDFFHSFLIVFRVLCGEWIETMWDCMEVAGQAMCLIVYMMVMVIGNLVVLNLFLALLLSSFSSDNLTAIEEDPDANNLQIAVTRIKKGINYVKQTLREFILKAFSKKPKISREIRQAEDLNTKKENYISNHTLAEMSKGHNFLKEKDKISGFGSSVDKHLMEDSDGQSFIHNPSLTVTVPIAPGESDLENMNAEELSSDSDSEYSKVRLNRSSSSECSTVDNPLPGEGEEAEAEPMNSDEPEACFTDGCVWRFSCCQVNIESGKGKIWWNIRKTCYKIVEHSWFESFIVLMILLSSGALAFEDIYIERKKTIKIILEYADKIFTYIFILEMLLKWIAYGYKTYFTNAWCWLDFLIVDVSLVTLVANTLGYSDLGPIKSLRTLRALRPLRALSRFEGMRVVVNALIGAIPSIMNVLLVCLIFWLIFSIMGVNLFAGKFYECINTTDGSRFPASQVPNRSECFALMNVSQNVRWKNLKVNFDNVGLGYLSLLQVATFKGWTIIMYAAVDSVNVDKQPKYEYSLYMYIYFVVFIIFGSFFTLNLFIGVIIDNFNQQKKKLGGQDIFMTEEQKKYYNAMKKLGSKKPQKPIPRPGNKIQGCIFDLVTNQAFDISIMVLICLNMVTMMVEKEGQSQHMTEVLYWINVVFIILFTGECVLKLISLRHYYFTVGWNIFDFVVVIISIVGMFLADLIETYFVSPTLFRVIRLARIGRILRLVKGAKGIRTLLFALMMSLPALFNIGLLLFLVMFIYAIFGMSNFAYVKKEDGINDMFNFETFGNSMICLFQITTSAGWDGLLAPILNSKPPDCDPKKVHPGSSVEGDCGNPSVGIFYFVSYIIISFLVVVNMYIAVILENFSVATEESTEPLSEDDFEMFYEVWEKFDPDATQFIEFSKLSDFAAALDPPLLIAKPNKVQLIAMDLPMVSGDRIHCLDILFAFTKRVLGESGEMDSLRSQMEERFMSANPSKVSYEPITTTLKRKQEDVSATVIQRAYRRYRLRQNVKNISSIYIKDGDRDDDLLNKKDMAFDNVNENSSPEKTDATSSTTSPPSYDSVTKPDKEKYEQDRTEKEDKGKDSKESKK

Consider `Cc1cc(-c2nnn(CC(N)=O)n2)cc(-c2ccc(Oc3ccc(F)cc3)cc2)n1` [compound 108, 2-(5-(2-(4-(4-fluorophenoxy)phenyl)-6-methylpyridin-4-yl)-2H-tetrazol-2-yl) acetamide], for which the IC50 was 0.13 ± 0.01 µM.
